Measurements published in ChEMBL document CHEMBL2074036, “Renal transport of organic compounds mediated by mouse organic anion transporter 3 (mOat3): further substrate specificity of mOat3” (Drug Metab Dispos, 2004).

T1: Organic anion transporter 3 (Mus musculus, UniProt O88909)
T1 sequence (O88909 whole entry): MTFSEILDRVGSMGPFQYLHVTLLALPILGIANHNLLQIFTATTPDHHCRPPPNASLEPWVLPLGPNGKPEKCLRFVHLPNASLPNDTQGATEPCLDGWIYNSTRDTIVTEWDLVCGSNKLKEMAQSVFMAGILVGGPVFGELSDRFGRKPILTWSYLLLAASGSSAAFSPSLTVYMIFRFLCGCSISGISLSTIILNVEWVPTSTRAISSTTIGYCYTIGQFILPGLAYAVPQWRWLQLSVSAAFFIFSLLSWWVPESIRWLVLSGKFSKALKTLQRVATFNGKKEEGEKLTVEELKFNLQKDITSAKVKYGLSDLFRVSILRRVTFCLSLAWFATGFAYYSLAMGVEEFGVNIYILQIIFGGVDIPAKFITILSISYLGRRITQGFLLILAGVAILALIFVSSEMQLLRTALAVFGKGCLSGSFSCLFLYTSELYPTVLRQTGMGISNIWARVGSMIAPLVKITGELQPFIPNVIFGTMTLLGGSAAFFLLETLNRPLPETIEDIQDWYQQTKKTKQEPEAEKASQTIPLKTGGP

T2: Oat3 (organic anion transporter 3) (Mus musculus, UniProt O88909)
T2 sequence (O88909 whole entry): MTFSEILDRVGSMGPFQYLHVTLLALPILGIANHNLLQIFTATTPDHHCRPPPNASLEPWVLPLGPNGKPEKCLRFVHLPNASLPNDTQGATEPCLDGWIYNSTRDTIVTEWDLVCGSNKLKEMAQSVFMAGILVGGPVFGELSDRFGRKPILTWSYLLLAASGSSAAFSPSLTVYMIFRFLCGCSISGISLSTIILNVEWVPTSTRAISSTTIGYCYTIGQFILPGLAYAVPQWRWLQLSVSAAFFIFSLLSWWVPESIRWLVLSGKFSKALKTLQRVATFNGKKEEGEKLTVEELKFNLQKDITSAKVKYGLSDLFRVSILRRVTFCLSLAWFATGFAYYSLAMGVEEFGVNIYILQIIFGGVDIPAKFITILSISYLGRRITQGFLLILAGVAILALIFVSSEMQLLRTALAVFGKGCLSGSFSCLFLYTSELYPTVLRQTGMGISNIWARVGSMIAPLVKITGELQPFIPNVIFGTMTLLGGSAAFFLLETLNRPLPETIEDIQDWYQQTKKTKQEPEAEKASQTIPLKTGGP

B1: Organic anion transporter 3 (Mus musculus) (protein)
chain: MTFSEILDRVGSMGPFQYLHVTLLALPILGIANHNLLQIFTATTPDHHCRPPPNASLEPWVLPLGPNGKPEKCLRFVHLPNASLPNDTQGATEPCLDGWIYNSTRDTIVTEWDLVCGSNKLKEMAQSVFMAGILVGGPVFGELSDRFGRKPILTWSYLLLAASGSSAAFSPSLTVYMIFRFLCGCSISGISLSTIILNVEWVPTSTRAISSTTIGYCYTIGQFILPGLAYAVPQWRWLQLSVSAAFFIFSLLSWWVPESIRWLVLSGKFSKALKTLQRVATFNGKKEEGEKLTVEELKFNLQKDITSAKVKYGLSDLFRVSILRRVTFCLSLAWFATGFAYYSLAMGVEEFGVNIYILQIIFGGVDIPAKFITILSISYLGRRITQGFLLILAGVAILALIFVSSEMQLLRTALAVFGKGCLSGSFSCLFLYTSELYPTVLRQTGMGISNIWARVGSMIAPLVKITGELQPFIPNVIFGTMTLLGGSAAFFLLETLNRPLPETIEDIQDWYQQTKKTKQEPEAEKASQTIPLKTGGP

Experiments:
[1] = target: T1, Organic anion transporter 3; test: (§1) TP_TRANSPORTER: uptake in mOat3-expressing oocytes; assay type: functional, cell-based; conditions: oocyte
[2] = target: T2, Oat3 (organic anion transporter 3); test: TP_TRANSPORTER: inhibition of PHA uptake (PHA: 1000uM) by P-aminohippuric acid at a concentration of 10uM in mOat3-expressing oocytes; assay type: functional, cell-based, Oocyte; set-up: scale not given: the % may be the effect or the level left; conditions: probe PHA (1000 uM), read-out: Activity
[3] = target: T2, Oat3 (organic anion transporter 3); test: TP_TRANSPORTER: inhibition of PHA uptake (PHA: 1000uM) in mOat3-expressing oocytes; assay type: functional, cell-based, Oocyte; set-up: scale not given: the % may be the effect or the level left; conditions: probe PHA (1000 uM)
[4] = substrate: Sc1ncnc2nc[nH]c12; test: as §1; assay type: functional, cell-based, Oocyte
[5] = substrate: O=c1[nH]cc(F)c(=O)[nH]1; test: as §1; assay type: functional, cell-based, Oocyte
[6] = substrate: C[N+](C)(C)C[C@H](O)CC(=O)[O-]; test: as §1; assay type: functional, cell-based, Oocyte

| Molecule | Activity [1] | Activity [3] [%] | further results |
| --- | --- | --- | --- |
| C[C@]12CC[C@@H]3c4ccc(OS(=O)(=O)O)cc4CC[C@H]3[C@@H]1CCC2=O [ESTRONE SULFURIC ACID] | substrate [] | – | – |
| Nc1ccc(C(=O)NCC(=O)O)cc1 [AMINOHIPPURIC ACID] | substrate [] | – | activity at 10 µM [2]: 20% |
| Oc1ncnc2[nH]ncc12 [ALLOPURINOL] | substrate [] | – | – |
| CCCCC[C@H](O)/C=C/[C@@H]1[C@@H](C/C=C\CCCC(=O)O)[C@@H](O)C[C@H]1O [DINOPROST] | substrate [] | – | – |
| CN/C(=N/CCSCc1nc[nH]c1C)NC#N [CIMETIDINE] | – | 65 | – |
| CCOC(=O)[C@H](CCc1ccccc1)N[C@@H](C)C(=O)N1CCC[C@H]1C(=O)O | – | 45 | – |
| CN1C(C(=O)Nc2ccccn2)=C(O)c2sccc2S1(=O)=O [TENOXICAM] | – | 55 | – |
| CC(C)Cc1ccc(C(C)C(=O)O)cc1 (stereo not drawn) [IBUPROFEN] | – | 80 | – |
| CCCCC[C@H](O)/C=C/[C@H]1[C@H](O)CC(=O)[C@@H]1C/C=C\CCCC(=O)O [DINOPROSTONE] | substrate [] | – | – |
| B1 | – | – | Km [4]: 4.01 µM; Km [5]: 0.0539 µM; Km [6]: 0.0619 µM |
